From patent US4916122A, “3'-Azido-2',3'-dideoxyuridine anti-retroviral composition” (University of Georgia Research Foundation, Inc., priority 1987, dated 1990)
“And” between values parts separate entries of the source, which are not always exact repeats. Equal values may be shown once. Read-outs that look alike come from different tables or passages of the source.

Key:
HIV-1 (Strain RF-II) = experiment: Antiviral activity against HIV-1 in HeLa-T4 cells (Table 4); format: cell-based
Protocol: Evaluation in Hela-T4 cells infected with HIV-1 (Strain RF-II)
HeLa-T4 cells (described in Cell 47: 333, 1986) are maintained in Dulbecco's Modified Eagle medium containing 10% inactivated fetal calf serum, penicillin (100 U/ml) and streptomycin (100 μg/ml), and the antibiotic G418 (1 mg/ml). The cells are seeded onto a 96-well plate (2×10^4 cells/well per 0.1 ml), and two days later, the supernatant is removed and the virus added. After adsorption for 45 minutes, the inoculum is removed and the cells washed with phosphate-buffered saline (pH 7.2). The compounds at different concentration are then added in maintenance medium (containing 2% serum). […] The cells are fixed with a mixture of 5% glacial acetic acid/95% Ethanol for 15 minutes, and then stained with Giemsa (20% in PSB) for 4 hours. The plates are then washed and dried. The foci are then enumerated with a dissecting stereomicroscope.

HIV (LAV-1) = experiment: Median effective antiviral concentration against HIV (Table 5); format: cell-based; details: HIV (LAV-1) vs Friend (EY-10) or Cas-Br-M
SIV (SMM) = experiment: Median effective antiviral concentration against SIV (Table 5); format: cell-based, simian immunodeficiency virus
Source text: (§1) A comparison of the differences in median effective an tiviral concentrations between human, non-human primate, and murine retroviruses is shown in Table 5. […] A further comparison of the activity of several nucleoside analogues, including CS-87, against HIV-1 and SIV in human PBM cells is shown in FIG. 6. The effect of delayed treatment with AZT, CS-87 or CS-91 on the replication of HIV-1 and SIV in human PBM cells is shown in FIGS. 7a, b, and c.

Friend (EY-10) = experiment: Median effective antiviral concentration against Friend virus (Table 5); format: cell-based, murine retrovirus; details: unidentified retrovirus, in Mus musculus
Source text: as §1

in vivo = format: in vivo, rhesus monkey; details: rhesus monkeys, oral dose of 920 mg
Protocol: In rhesus monkeys, the pharmocokinetic parameters after an oral dose of […] of CS-87 are as follows: […]

in vitro = format: cell-based
Source text: The effect of CS-87 on colony formation of human granulocytes-macrophage precursor cells was compared with the effects of AZT and CS-85 in FIG. 1. Vero cells are very fast growing cells, and it can be seen from FIG. 2a that up to a concentration of about 400 micromolar, there is relatively little toxicity to these cells. PBM cells are somewhat more sensitive to CS-87 than the Vero cells, but these cells will still tolerate a concentration of CS-87 of up to about 200 micromolar before significant inhibition is noted (see FIG. 2b).

[1] = Effect on weight of uninfected BALB/c mice (FIG. 3); format: in vivo, mouse; details: compared with each other and control
[2] = tested on: liver enzymes SGPT and SGOT; format: in vivo, rhesus monkey; details: rhesus monkeys, FIG. 4
HIV-1 and SIV = experiment: Effect of delayed treatment on replication of HIV-1 and SIV in human PBM cells (FIG. 7); format: cell-based, HIV-1; SIV
Source text: as §1

NIH Swiss mice = details: 67 days; for Hct / Hgb / MCH / MCHC / MCV / PLT / RBC / RDW / WBC: oral 0.5 mg/ml ad libitum
uninfected cells = details: tested up to 200 μM
L1210 cells = details: in vitro; Lin et al.; Lin and Mancini; cited from earlier work
sarcoma 180 cells = details: in vitro; Lin et al.; cited from earlier work
reovirus-1 = details: Colla et al.; cited from earlier work
parainfluenza virus-3 = details: Colla et al.; cited from earlier work
Sindbis virus = details: Colla et al.; cited from earlier work
measles = details: Colla et al.; cited from earlier work
HIV-1 p24 = experiment: Inhibition of HIV replication in human PBM cells, p24 RIA (Table 3)
HIV-1 (strain LAV) = experiment: Inhibition of HIV replication in human PBM cells, reverse transcriptase assay (Table 3)
[3] = Human immunodeficiency virus 1, PBMC, in Homo sapiens, read-out: RIA p24 % Inhibition
[4] = Human immunodeficiency virus 1, PBMC, in Homo sapiens, read-out: RT % Inhibition (corrected)

## [N-]=[N+]=N[C@H]1C[C@H](n2ccc(=O)[nH]c2=O)O[C@@H]1CO [CS-87, 3'-azido-2',3'-dideoxyuridine]
HIV-1 (Strain RF-II)
  activity compared to d2C in HeLa-T4 cells: less active
HIV-1 (Strain RF-II); Human immunodeficiency virus 1, HeLaT4, HIV-1
  EC50: 1.24 µM
HIV (LAV-1)
  effectiveness against HIV (LAV-1) compared with Friend or mouse ecotropic virus: much more effective
SIV (SMM); SIV (SMM) vs Friend (EY-10) or Cas-Br-M
  effectiveness against SIV (SMM) compared with Friend or mouse ecotropic virus: much more effective
SIV (SMM); Simian immunodeficiency virus
  EC50: 0.2 µM
Friend (EY-10)
  EC50: > 10 µM
In vivo; rhesus monkey, in vivo
  AUC: 113 µg·h/mL
In vivo; rhesus monkey, in vivo, read-out: clearance (converted)
  CL/F: 1.74 L/h/kg
In vivo; rhesus monkey, in vivo, read-out: elimination rate constant, k (converted)
  k el: 0.000397 s⁻¹
In vivo; rhesus monkey, in vivo, read-out: elimination t1/2 k (converted)
  half-life: 28.8 min
In vivo; rhesus monkey, in vivo, read-out: volume of distribution (Vss)
  Vd/F: 1.2 L/kg
In vivo
  absorption rate constant (ka): 1.73 h⁻¹
  absorption rate t1/2: 24 min
In vitro; human, PBM cells, FIG. 2b, read-out: concentration tolerated by PBM cells before significant inhibition is noted
  MNTC: ~200 µM
In vitro; monkey, Vero cells, FIG. 2a, read-out: concentration up to which there is relatively little toxicity to Vero cells
  MNTC: ~400 µM
[1]
  effect on weight of uninfected BALB/c mice: no significant difference
[2]
  toxicity by oral (po) vs intravenous administration: less toxic than intravenous administration
HIV-1 and SIV
  effect of delayed treatment on replication of HIV-1 and SIV: time of administration is critical to the effectiveness of the treatment
NIH Swiss mice; Mean of group
  Hct: 42.4%
  Hgb: 14.0 g/dL
  MCH: 16.7 pg
  MCHC: 33.1 g/dL
  MCV: 50.4 fL
  PLT: 1.3 × 10^6
  RBC: 8.4 × 10^6
  RDW: 26.0%
  WBC: 8.0 × 10^3
NIH Swiss mice; NIH Swiss mice, oral 0.5 mg/ml
  toxicity compared to AZT (RBC and MCV values): significantly less toxicity
NIH Swiss mice; individual mouse
  Hct: 37.2% and 44.4% and 42.3% and 45.7%
  Hgb: 12.9 g/dL and 14.1 g/dL and 14.2 g/dL and 14.8 g/dL
  MCH: 16.9 pg and 16.4 pg and 16.6 pg and 16.8 pg
  MCHC: 34.6 g/dL and 31.8 g/dL and 33.5 g/dL and 32.4 g/dL
  MCV: 48.8 fL and 51.7 fL and 49.4 fL and 51.8 fL
  PLT: 1.158 × 10^6 and 1.35 × 10^6 and 1.305 × 10^6 and 1.361 × 10^6
  RBC: 7.6 × 10^6 and 8.6 × 10^6 and 8.8 × 10^6
  RDW: 34.3% and 16.8% and 37.7% and 15.3%
  WBC: 2.6 × 10^3 and 8.9 × 10^3 and 7.9 × 10^3 and 12.6 × 10^3
Uninfected cells
  toxicity to the uninfected cells: not toxic
L1210 cells
  activity against L1210 cells: inactive
Sarcoma 180 cells
  activity against sarcoma 180 cells: inactive
reovirus-1
  activity against reovirus-1: inactive
Parainfluenza virus-3
  activity against parainfluenza virus-3: inactive
Sindbis virus
  activity against Sindbis virus: inactive
measles
  activity against measles: inactive
HIV-1 p24; 0.1 μM
  RIA p24 (Dupont kit): 21.86 ng/mL
HIV-1 p24; 1 μM
  RIA p24 (Dupont kit): 11.76 ng/mL
HIV-1 p24; 10 μM
  RIA p24 (Dupont kit): 0.65 ng/mL
HIV-1 p24; [3]
  inhibition at 0.1 µM: 9.2%
  inhibition at 1 µM: 51.2%
  inhibition at 10 µM: 97.3%
HIV-1 (strain LAV); 0.1 μM
  RT: Mean DPM/ml on day 5 (3 day old cells): 367,934 DPM/ml
HIV-1 (strain LAV); 1 μM
  RT: Mean DPM/ml on day 5 (3 day old cells): 188,878 DPM/ml
HIV-1 (strain LAV); 10 μM
  RT: Mean DPM/ml on day 5 (3 day old cells): 12,904 DPM/ml
HIV-1 (strain LAV); [4]
  inhibition at 0.1 µM: 42.3%
  inhibition at 1 µM: 70.4%
  inhibition at 10 µM: 98%
